Assay results from patent publication US11998600B2, “Enhancing the therapeutic activity of an immune checkpoint inhibitor” (MaineHealth, priority 2015, dated 2024).

Key:
[1] = system: chick chorioallantoic membrane (CAM); assay: Chick CAM angiogenesis assay, induction by RGD collagen peptides; format: in vivo; settings: chick CAM
Description: (§1) The chick chorioallantoic membrane (CAM) assays were carried out with some modifications (19). For all experiments CAMs of 10-day-old chick embryos obtained from Charles River (North Franklin, CT) were separated from the shell membrane. Filter discs either non-treated (inflammation assays) pretreated (angiogenesis assays) with cortisone acetate (3.0 mg/ml) containing RPMI only or FGF-2 (40 ng). CAMs were either non-treated or treated topically with Mab XL313, XL166 or a non-specific control antibody (10 μg/embryo every 24 h for three consecutive treatments). […] At the end of the incubation period the embryos were sacrificed and the CAM tissues were analyzed. Angiogenesis was quantified by counting the number of angiogenic branching blood vessels within the area of the filter disc. The angiogenic index was determined by subtracting the mean number of blood vessel branch points from untreated CAMs from each experimental condition. Eight to twelve embryos were used per condition and experiments were repeated at least three times.
To examine this possibility, the effects of the RGDKGE (SEQ ID NO. 1) containing collagen peptide on angiogenesis and inflammation in the chick CAM were assessed.

[2] = system: chick chorioallantoic membrane (CAM); assay: Chick CAM inflammation assay, induction by RGD collagen peptides; format: in vivo; settings: chick CAM, no cortisone acetate; FIG. 5D
Description: as §1
The effects of the soluble RGD containing collagen peptides on inflammation were examined.

QGPRGDKGE [Mab P-2]
dose dependent induction of CAM angiogenesis ([1]; FIG. 5B): dose dependently enhanced angiogenesis
dose of maximum induction of angiogenesis ([1]; FIG. 5B): 100 ng/CAM
induction of CAM angiogenesis as compared to no treatment ([1]; peptides 100 ng/ml, FIG. 5C): significantly (P>0.05) induced angiogenesis
CAM inflammation following stimulation with peptide [2]: significantly (P<0.05) induced inflammation to nearly that of FGF-2 stimulation
